What was measured:
[1] = Isothermal titration calorimetry (ITC); type: binding; settings: 25 °C, β,β-Dim vs CL
Protocol: An isothermal titration calorimetry (ITC) assay was used to assess the affinity between β,β-Dim and PE, PG, and CL using NANO ITC (TA, New Castle, DE, USA). β,β-Dim (0.01 mM) was loaded into the sample cell and titrated with 20 injections of 2 μL membrane components (0.2 mM) at 120 s intervals. The assay was performed at 25 °C with a stirring rate of 350 rpm. Data were analyzed using the independent binding model to calculate the dissociation constant (KD), stoichiometric ratio (n), enthalpy change (ΔH), and entropy change (ΔS).

[2] = tested on: sheep blood cells; assay: Hemolytic activity; type: cell-based; settings: Ovis aries, Erythrocyte; sheep erythrocytes, 1 h; selection criterion; read-out: IC50 hemolysis
Protocol: Toxicity assessment was performed by using sheep blood cells, human renal proximal tubular epithelial HK-2, and human hepatocarcinoma HepG2. Briefly, 8% erythrocyte suspensions were incubated with the test compounds (0–250 µM) for 1 h at 37 °C. After centrifugation, supernatants were transferred to a 96-well plate, and absorbance was measured at 570 nm.
The HepG2 and HK-2 cells (10^4 cells/well) were cultured in DMEM medium containing 10% fetal bovine serum (FBS) and then placed in a 5% CO2 incubator for 24 h. The culture medium was replaced with fresh DMEM medium containing the compounds (0–250 µM), followed by a further 24 h incubation. Subsequently, 10 µL of CCK-8 was added and incubated for 1 h, and OD450nm values were measured.Hemolysis% = [OD570nm(drug) − OD570nm(blank)]/[OD570nm(TritonX−100) − OD570nm(blank)] × 100%Cell viability% = [OD450nm(drug) − OD450nm(blank)]/[OD450nm(negative) − OD450nm(blank)] × 100%

[3] = tested on: E. coli BW25113, E. coli BW25113-mcr-1, and E. coli BW25113-pmrBR93P; assay: Intracellular β,β-Dim content (HPLC-MS/MS); type: cell-based; settings: β,β-Dim 16 μg/mL with colistin 0–1 × MIC; three E. coli strains
Protocol: Overnight cultures E. coli BW25113, E. coli BW25113-mcr-1, and E. coli 1 BW25113-pmrBR93P were diluted to 10^8 CFU/mL and then co-incubated with colistin (0.5 × MIC) in the presence of β,β-Dim (0–4 μg/mL) for 30 min at 37 °C. The cultures were centrifuged and resuspended in 30% methanol. Bacteria were disrupted by sonication and centrifugation, supernatants were diluted in 20% acetonitrile, and intracellular colistin was quantified via HPLC-MS/MS (TQ-XS, Waters, Milford, MA, USA). Analyses were performed on a CORTECS Shield RP C18 column (Waters, Milford, MA, USA) at 40 °C, with a flow rate of 0.4 mL/min and an injection volume of 5 μL. The mobile phases consisted of solvent A (0.5% formic acid and acetonitrile in water) and solvent B (0.5% formic acid in water). Colistin was detected in positive ESI mode with ion transitions […] and m/z 386.0 > 101.0. […] Mobile phases included solvent A (acetonitrile) and solvent B (water). β,β-Dim was detected in the negative electrospray ionization (ESI) mode with ion transitions m/z 369.1 > 269.0 and m/z 369.1 > 241.0.

[4] = rats; cited from earlier work
[5] = cited from earlier work
[6] = tested on: S. aureus ATCC 29213; assay: Membrane permeability (PI); type: cell-based; settings: β,β-Dim 0–32 µg/mL, 1 h
Protocol: (§1) The S. aureus ATCC 29213 bacterial suspension (OD600 = 0.5) was incubated with fluorescent probe propidium iodide (PI, Cat No. C1008S, Beyotime, Shanghai, China, final concentration 10 µM) for 30 min. Then, β,β-Dim (0–32 µg/mL) was added to the PI-labeled suspension in a black 96-well plate and incubated for 1 h. Fluorescence intensity was measured at an excitation/emission wavelength of 535/615 nm. The cytoplasmic membrane permeability of E. coli BW25113, E. coli BW25113-mcr-1, and E. coli BW25113-pmrBR93P induced by β,β-Dim was assessed by preparing spheroplasts.

[7] = tested on: E. coli spheroplasts; assay: Membrane permeability of spheroplasts (PI); type: cell-based
Protocol: The cytoplasmic membrane LPS concentrations of E. coli BW25113, E. coli BW25113-mcr-1, and E. coli BW25113-pmrBR93P were quantified using a Chromogenic LAL Endotoxin Assay Kit (Cat No, C0273S, Beyotime, Shanghai, China). Firstly, spheroplasts were prepared according to a previously described method to remove the outer membrane. Briefly, bacterial cells were washed with Tris buffer and resuspended in Tris buffer containing 20% sucrose. EDTA (250 μL, 10 mg/mL) and lysozyme (1 mL, 10 mg/mL) were added, followed by incubation at 30 °C for 1 h with shaking at 80 rpm. Trypsin (500 μL, 10 mg/mL) was added and incubated for an additional 15 min. […] Then, the released LPS was quantified by reacting with LPS detection reagents, and absorbance was measured at 405 nm.
as §1, with “Then, β,β-Dim (0–32 µg/mL) was added to the PI-labeled suspension in a black 96-well plate and incubated for 1 h.” left out

[8] = tested on: S. aureus ATCC 29213; assay: Membrane potential, proton gradient and PMF; type: cell-based
[9] = acute oral, mice; cited from earlier work
[10] = tested on: K. pneumoniae (including mcr-1, mcr-8, mcr-9, pmrA/B, phoP, and mgrB); assay: Checkerboard assay, colistin-resistant K. pneumoniae (summary); type: cell-based; settings: with β,β-Dim
Protocol: (§2) The FICI of β,β-Dim–colistin combination was determined by a checkerboard assay. Briefly, two-fold serial dilutions of β,β-Dim and colistin were prepared in a 96-well plate. After incubation at 37 °C for 18 h with bacterial suspension (10^6 CFU/mL), OD600 values were measured. FICI = (MICβ,β-Dim in combination/MICβ,β-Dim) + (MICcolistin in combination/MICcolistin). The synergistic effect of β,β-Dim with other antibiotics was measured in the same way. Synergy was considered to be an FICI ≤ 0.5.

[11] = tested on: E. coli (including mcr-1, mcr-3, and pmrA/B); assay: Checkerboard assay, colistin-resistant E. coli (summary); type: cell-based; settings: with β,β-Dim
Protocol: as §2

[12] = tested on: six susceptible strains; assay: Checkerboard assay, six susceptible strains (summary); type: cell-based; settings: with β,β-Dim
Protocol: as §2

Row | Compound | Kd [1] | IC50 [2] | intracellular β,β-Dim accumulation [3] | maximum tolerable dose [4] | no-observed-adverse-effect level (NOAEL) [4] | lipophilicity [5] | membrane permeability (PI fluorescence intensity) [6] | membrane permeability [7] | membrane potential, proton gradient, PMF [8] | median lethal dose (LD50) [9] | enhancement of colistin activity (MIC reduction) [10] | improvement of colistin efficacy (MIC reduction) [11] | reduction of colistin MIC [12]
1 | CC(C)=CC[C@H](OC(=O)C=C(C)C)C1=CC(=O)c2c(O)ccc(O)c2C1=O [β,β-Dim, β,β-dimethylacrylalkannin] | 12.4 µM | > 10 µM | approximately 60 ng per 10^8 CFUs | exceeds 10 g/kg | 10 mg/kg | high lipophilicity | increased membrane permeability in a concentration-dependent manner | markedly increased membrane permeability | increased membrane potential in S. aureus ATCC 29213, reduced the proton gradient, and dissipated the PMF | exceeds 10 g/kg | – | – | –
2 | colistin | – | – | – | – | – | – | – | – | – | – | 8–1024 fold | 4–32 fold | 4–64 fold

Source: PMC12837263, “β,β-Dimethylacrylalkannin Restores Colistin Efficacy Against mcr- and TCS-Mediated Resistant Gram-Negative Bacteria via Membrane Disturbance” (Antibiotics, 2025)
